Source: paper PMC10823475, “Design, Synthesis, and Evaluation of Inhibitors of Hedgehog Acyltransferase” (Journal of Medicinal Chemistry, 2024)

What was measured:
[1] = test system: HH signaling (HEK293a SHH+ conditioned media on SHH-Light2 cells); assay: Light2 dual-luciferase cell-based HH signaling assay (Firefly); settings: Firefly luciferase, Light2 cells; read-out: HH signaling inhibition EC50 (CI95)
Procedure: Subsequently, the effect of analogues on HH signaling was investigated using a cellular luciferase reporter assay. Light2 cells derived from NIH3T3 cells constitutively express Renilla luciferase as an internal control for cell density alongside Firefly luciferase under the control of a HH-responsive Gli promoter.[43] HEK293a SHH^+ cells were incubated with varying inhibitor concentrations and SHH-containing conditioned media transferred to the NIH3T3-Light2 cells to mimic paracrine signaling[30],[35] (Figure 6A).
The Light2 cell-based signaling assay has been described previously.[35] Briefly, HEK293a SHH^+ cells were plated at 120,000 cells/well of a 12-well plate in a volume of 1 mL/well and cultured as described above. After 24 h, cells were washed with PBS, followed by addition of 1 mL of media containing 0.2% DMSO or varying inhibitor concentrations in DMSO (0.041–30 μM final). Additionally, SHH-Light2 cells were plated at 20,000 cells/well of a 96-well plate in 50 μL media. After another 24 h, 300 μL of the conditioned media were collected from each well of the treated HEK293a SHH^+ cells, centrifuged at 1000g for 10 min to remove detached cells and split into three wells of the SHH-Light2 cells (100 μL/well; 150 μL final volume in each well). The treated Light2 cells were cultured for another 48 h and subsequently washed with PBS. Firefly and Renilla luciferase activity was measured using the Dual-Luciferase reporter system (Promega Corporation, USA). Then 20 μL of 1× passive lysis buffer were added to each well. After 30 min at RT, 5 μL of each lysate were transferred to a white opaque 96-well plate. Then 20 μL/well of luciferase assay reagent II was added and the luminescence immediately recorded using a SpectraMax i3x plate reader (Molecular Devices LLC). Subsequently, 20 μL/well of 1× Stop&Glo substrate in Stop&Glo buffer was added and the luminescence immediately recorded for a second time. Data was evaluated using a “sigmoidal dose response (variable slope)” model in GraphPad Prism 5 (GraphPad Software, Inc.). The luminescence signal of the Firefly luciferase was normalized to the DMSO vehicle (100%) and the unconditioned media (0%) controls.

purified HHAT = target: T1, purified HHAT (Homo sapiens, UniProt Q5VTY9); assay: Acyl-cLIP assay, inhibition of purified HHAT; type: biochemical; settings: for LLEAcyl-cLIP: from Acyl-cLIP IC50 and clogDpH7.4; for IC50: purified HHAT, read-out: Acyl-cLIP Assay IC50 (CI95); for fold increase in potency compared to racemate: enantiomer vs racemate (29 vs 21, 30 vs 24, 43 vs 39)
T1 construct: made in house
Procedure: The inhibitory potency of all 50 compounds against purified HHAT was quantified using the acylation-coupled lipophilic induction of polarization (acyl-cLIP) assay recently developed in our lab, a universally applicable assay for high-throughput analysis of protein–lipid transferases and hydrolases.[31],[40] In brief, in this assay a fluorescently labeled peptide based on the N-terminal sequence of SHH is incubated with N-dodecyl β-D-maltoside (DDM) solubilized purified HHAT, palmitoyl-CoA, and HHAT inhibitors. Binding of the lipidated peptide product to the DDM micelle results in decreased tumbling rate and an increase in polarization of fluorescence emission, enabling facile quantification of HHAT activity. Initially, % HHAT inhibition was determined at 50 μM and 25 μM for all analogues. […] HHAT is a 12-pass TM protein,[14] and we considered whether lipophilicity might bias inhibition; pIC50 values were compared to calculated log D, which indicated no significant correlation (SI, Table S1 and Figure S2). We concluded that lipophilicity is not a general driver of HHAT inhibitory potency.
The acyl-cLIP assay has been described previously.[40] Briefly, SHH-FAM peptide was diluted in buffer A (100 mM MES, 20 mM NaCl, 1 mM DTT, 1 mM TCEP, 0.1% BSA, pH 6.5) to a concentration of 2 μM. Palmitoyl-CoA (Sigma-Aldrich) was diluted in buffer A to 7.5 μM and recombinant HHAT (obtained by following the published protocol[14]) in buffer B (20 mM HEPES, 350 mM NaCl, 1% DDM, 5% glycerol, pH 7.3) diluted to 44 μg/mL. 1.5 μL of a 50 mM inhibitor DMSO stock was diluted with 18.5 μL of DMSO and further serial diluted (1:1). For each condition, 6 μL of the HHAT working stock and […] of the SHH-peptide working stock were mixed with 3 μL of the corresponding inhibitor concentration or DMSO vehicle. Twelve μL/well of this mixture was split into four wells of a black 384 well plate. To start the reaction, 8 μL of the Pal-CoA working stock were added to each well and fluorescence anisotropy and the total fluorescence recorded on an EnVision Xcite 2104 (PerkinElmer) over 30 min (emission filter 1 = FITC FP P-pol 535; emission filter 2 = FITC S-pol 535; excitation filter: FITC FP 480; measurement height = 6.5 mm; detector gain = 0; high concentration gain). Initial rate constants were determined by linear regression and normalized to DMSO control and samples with buffer B instead of HHAT. IC50 values were extracted from the corresponding dose response curves using a “sigmoidal dose response (variable slope)” model in GraphPad Prism 5 (GraphPad Software, Inc.).

[2] = MTS assay, cytotoxicity (72 h); type: cell-based; settings: human, HEK293a SHH+ cells, 72 h; for CC50 at 72 h: read-out: MTS Assay (HEK293a SHH+) CC50 (CI95)
Procedure: (§1) The survival of HEK293a SHH^+ cells is independent of HH signaling,[35] therefore, the cytotoxicity of analogues was tested using the MTS assay to investigate off-target toxicity. In this assay, HEK293a SHH^+ cells were treated with DMSO vehicle or varying concentrations of analogues for 72 h. Subsequently, a mixture of 1-methoxy phenazine methosulfate (PMS) and [3-(4,5-dimethylthiazol-2-yl)-5-(3-carboxymethoxyphenyl)-2-(4-sulfophenyl)-2H-tetrazolium] (MTS) was added to enable quantification of cell number via colorimetric analysis. […] Compounds 3, 17, 19, 32, 34, 38, and 45, which all contain a 2-((2-methylbutyl)amino)acetyl, were toxic to HEK293a SHH^+ cells, as were ureas 26, 40, and 41.
(§2) HEK293a SHH^+ cells were plated at 5000 cells/well in a 96-well plate (Nunc) using a volume of 50 μL/well and cultured for 24 h as described. Cells were treated with 100 μL/well of either DMSO vehicle, Puromycin (2 μg/mL), or stated analogues (0.14–100 μM final) in DMEM supplemented with 10% FBS. After 72 h, 20 μL/well of a mixture of 1-methoxy phenazine methosulfate (PMS) and [3-(4,5-dimethylthiazol-2-yl)-5-(3-carboxymethoxyphenyl)-2-(4-sulfophenyl)-2H-tetrazolium] (MTS) at a ratio of MTS/PMS = 2/0.92 mg/mL in PBS was added and the plates were incubated for 3 h at 37 °C. Subsequently, the absorption at 490 nm was recorded using an EnVision Xcite 2104 (PerkinElmer), and the response was normalized to vehicle control and Puromycin treated samples. Dose response curves were fitted to a “sigmoidal dose response (variable slope)” model using GraphPad Prism 5 (GraphPad Software, Inc.).

HEK293a SHH+ cells = assay: MTS assay, cytotoxicity (72 h); type: cell-based; settings: for decrease in cell viability / cell survival: 12.5 μM; for CC50: 72 h, read-out: MTS Assay (HEK293a SHH+) CC50 (CI95)
Procedure: as §1, §2

T1 sequence (Q5VTY9 whole entry): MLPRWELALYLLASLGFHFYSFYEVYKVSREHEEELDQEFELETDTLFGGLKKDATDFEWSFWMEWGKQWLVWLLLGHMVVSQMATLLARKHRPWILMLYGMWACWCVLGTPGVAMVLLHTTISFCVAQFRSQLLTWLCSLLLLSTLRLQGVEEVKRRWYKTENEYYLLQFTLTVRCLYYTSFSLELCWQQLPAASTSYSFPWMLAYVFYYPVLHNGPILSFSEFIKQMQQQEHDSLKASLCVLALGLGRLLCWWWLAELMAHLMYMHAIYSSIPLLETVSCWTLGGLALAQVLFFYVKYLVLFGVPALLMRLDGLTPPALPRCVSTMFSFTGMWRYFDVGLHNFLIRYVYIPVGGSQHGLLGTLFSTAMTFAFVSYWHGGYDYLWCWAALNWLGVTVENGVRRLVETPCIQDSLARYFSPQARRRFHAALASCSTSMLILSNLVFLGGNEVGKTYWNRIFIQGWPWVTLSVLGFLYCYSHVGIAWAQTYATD

Compound | EC50 [1] [µM] | inhibition at 25 µM (purified HHAT) [%] | inhibition at 50 µM (purified HHAT) [%] | LLEAcyl-cLIP (purified HHAT) | IC50 (purified HHAT) [µM] | CC50 at 72 h [2] [µM] | viability at 72 h, 12.5 µM [2] [%] | viability at 72 h, 25 µM [2] [%] | decrease in cell viability / cell survival (HEK293a SHH+ cells) [%] | CC50 (HEK293a SHH+ cells) [µM] | toxicity to HEK293a SHH+ cells (HEK293a SHH+ cells) | fold increase in potency compared to racemate (purified HHAT) [fold]
C=CCNCC(=O)N1CCc2sccc2C1c1ccccc1 (stereo not shown) [Compound 12, 2-(Allylamino)-1-(4-phenyl-6,7-dihydrothieno[3,2-c]pyridin-5(4H)-yl)ethan-1-one] | 2.92 | 68 ± 5 | 83 ± 1 | 2.94 | 6.55 | > 50 | 86 ± 2 | 73 ± 2 | < 30 |  |  | 
CC(C)CNCC(=O)N1CCc2ccccc2C1c1ccccc1 (stereo not shown) [Compound 39, 2-((2-Methylpropyl)amino)-1-(1-phenyl-3,4-dihydroisoquinolin-2(1H)-yl)ethan-1-one] | 2.59 | 81 ± 2 | 86 ± 1 | 3.30 | 6.02 | > 50 | 94 ± 3 | 92 ± 4 | < 30 | > 100 |  | 
CCC(C)CNCC(=O)N1CCc2sccc2C1c1ccccn1 (stereo not shown) [Compound 19, 2-(2-Methylbutylamino)-1-[4-(pyridin-2-yl)-6,7-dihydro-4H-thieno[3,2-c]pyridin-5-yl]ethanone] | 0.58 | 81 ± 1 | 91 ± 1 | 3.84 | 7.98 | 20.3 | 87 ± 1 | 75 ± 4 | < 30 |  | toxic | 
CC[C@H](C)CNCC(=O)N1CCc2sccc2C1c1cccc(C)n1 (stereo partly shown) [Compound 23] | 1.58 | 87 ± 7 | 86 ± 8 | 4.04 | 3.71 | > 50 | 87 ± 2 | 74 ± 3 |  | > 100 |  | 
CCC(C)CNCC(=O)N1CCc2ccc(Cl)cc2C1c1ccccc1 (stereo not shown) [Compound 45, 1-(7-Chloro-1-phenyl-3,4-dihydroisoquinolin-2(1H)-yl)-2-((2-methylbutyl)amino)ethan-1-one] | 6.44 | 89 ± 3 | 93 ± 3 | 2.43 | 4.22 | 15.4 | 70 ± 3 | 14 ± 4 | < 30 |  | toxic | 
CC(C)CNCC(=O)N1CCc2ccccc2C1c1ccccc1 (stereo in doubt) [Compound 43, (R)-2-((2-Methylpropyl)amino)-1-(1-phenyl-3,4-dihydroisoquinolin-2(1H)-yl)ethan-1-one] | 0.8 | 88 ± 3 | 93 ± 3 | 3.64 | 2.77 | > 50 | 98 ± 2 | 97 ± 3 | < 30 | > 100 |  | 2
CC(=O)N1CCc2sccc2[C@@H]1c1cccc(C)n1 [Compound 29, (R)-1-(4-(6-Methylpyridin-2-yl)-6,7-dihydrothieno[3,2-c]pyridin-5(4H)-yl)ethan-1-one] | 1.29 | 76 ± 2 | 86 ± 2 | 3.10 | 7.45 | > 50 | 92 ± 3 | 88 ± 5 | < 30 | > 100 |  | 2
CCC(C)CNCC(=O)N1CCc2sccc2C1c1ccccc1OC (stereo not shown) [Compound 32, 1-(4-(2-Methoxyphenyl)-6,7-dihydrothieno[3,2-c]pyridin-5(4H)-yl)-2-((2-methylbutyl)amino)ethan-1-one] | > 30 | 66 ± 2 | 79 ± 2 | 3.00 | 8.09 | 7.6 | 55 ± 3 | 42 ± 2 |  |  | toxic | 
